Results on two molecules are retold here after paper PMC5563081, “Modulating Protein-Protein Interactions of the Mitotic Polo-like Kinases to Target Mutant KRAS” (Cell Chemical Biology, 2017).

Read-outs that look alike come from different tables or passages of the source. Non-standard residues stand in square brackets, D forms with d. No end group written: not given here. *: point of attachment. TAMRA = tetramethyl-6-carboxy-rhodamine, CN(C)c1ccc2c(-c3cc(C(=O)*)ccc3C(=O)[O-])c3ccc(N(C)C)cc3[o+]c2c1; pT = C[C@@H](OP(=O)(O)O)[C@H](N)C(=O)O

One assay deals with HT29. Nature of the assay: Cell viability, HT29. Format: cell-based. The note with it: Homo sapiens, HT-29, read-out: Crizotinib GI50.
Assay [1] concerns murine pancreatic organoids KRAS MUT p53 MUT. Nature of the assay: Viability of pancreatic organoids (CellTitre Glo 3D), KRAS G12D. As to conditions: Mus musculus; organoids KRAS MUT p53 MUT #2, Crizotinib plus DMSO, n=2; read-out: Mean GI50. Format: cell-based. The protocol: (§1) Organoid cultures were prepared from the pancreas of LSL-Trp53^R172H/+, Pdx-1-Cre (for Kras WT organoids) or LSL-Trp53^R172H/+, LSL-Kras^G12D/+, Pdx-1-Cre (for Kras^G12D organoids KPC3760 and KPC26684) strains ([Hingorani et al., 2005]). Pancreatic ducts were manually picked after tissue mincing and overnight enzymatic digestion with 0.012% (w/v) collagenase XI (Sigma) and 0.012% (w/v) dispase (GIBCO) in DMEM media containing 1% FBS (GIBCO), before seeding in growth-factor-reduced (GFR) Matrigel (BD) ([Boj et al., 2015]).
(§2) Pancreatic organoids were extracted and cultured as detailed above ([Boj et al., 2015]). In brief, pancreatic organoids were seeded at 600 cells per well in a 96 well plate and allowed to grow for 7 days with media replenishment on the 3rd day. Full-grown organoids were then treated with compounds for 72h and viability determined using CellTitre Glo 3D assay (Promega). For viability assays with c-MET siRNA, cells were reverse transfected in a 6 cm dish using Dharmafect 1 (GE Dharmacon) per manufacturer’s instructions. On the following day, cells were trypsinised and plated onto 96 well plates or 6 well plates. The 96 well plates were treated with a dose range of compounds or DMSO, and viability was determined via SRB colorimetric assay. Cells in the 6 well plates were collected at the end of experiment to corroborate knockdown of c-MET by Western blotting.

A further assay has as its system Panc 05.04. Nature of the assay: Cell viability (SRB), Panc 05.04. The note with it: Homo sapiens, Panc 05.04; Panc 04.05; read-out: Crizotinib GI50. It is filed as cell-based. The protocol:
(§3) SW48 Parental, SW48 G12D, Panc-1, HPAF-II, Panc 02.03 and Panc 05.04 cell lines were seeded overnight at 5000 cells per well in a 96 well plate in recommended media (ATCC). Compounds were added the following day and viability was measured at 72h using the sulforhodamine B (SRB) colorimetric assay as follows. Cells were fixed by replacing media with 1% v/v Trichloroacetic Acid (TCA) (Sigma-Aldrich) at 4°C and incubated for 1h also at 4°C. Wells were washed thoroughly with copious amounts of deionised water before staining with Sulforhodamine B (SRB) (Sigma-Aldrich) solution (0.057% w/v in 1% v/v Acetic Acid (VWR)) for 30 min. Stain was aspirated and wells washed with several changes of 1% v/v Acetic Acid until unbound stain was removed, before air-drying. Bound stain was solubilized with 100μl / well 10mM Tris (pH 8.0) (Trizma Base (121.1) Sigma-Aldrich) with agitation for 10 min. Fluorescence intensity was recorded at Ex540nm / Em590nm using a BMG Pherastar Plus plate reader ([Vichai and Kirtikara, 2006]).
as §2, with “Cells in the 6 well plates were collected at the end of experiment to corroborate knockdown of c-MET by Western blotting.” left out
(§4) Cells were reverse-transfected with 50nM (SW48 parental, SW48 KRAS G12D and Panc-1) or 25nM (HeLa Flp-In T-REx parental cells) siRNA using Dharmafect (GE Dharmacon) as manufacturer’s recommendations. […] Viability was assessed after 72 hrs, with the SRB colorimetric assay. Knockdown efficiencies were determined by Western blot or RT-qPCR. […]

For another assay, the system named is Panc 02.03. Nature of the assay: Cell viability (SRB), Panc 02.03. Format: cell-based. The note with it: Homo sapiens, Panc 02.03; read-out: Crizotinib GI50. The protocol: as §3
as §2, with “Cells in the 6 well plates were collected at the end of experiment to corroborate knockdown of c-MET by Western blotting.” left out
as §4

A further assay relates to SW116. As to the kind of experiment: Cell viability, SW1116. Format: cell-based. As to conditions: Homo sapiens, read-out: Crizotinib GI50.
Assay [2] deals with murine pancreatic organoids KRAS WT p53 MUT. As to the kind of experiment: Viability of pancreatic organoids (CellTitre Glo 3D), KRAS WT. Format: cell-based. The note with it: Mus musculus; organoids KRAS WT p53 MUT, Crizotinib plus DMSO, n=2; read-out: Mean GI50. The protocol:
as §1, §2

For assay [3], the system named is SW48 parental (KRAS WT) cells. As to the kind of experiment: Cell viability (SRB), SW48 parental. The note with it: Homo sapiens; SW48 KRAS WT, Crizotinib with DMSO, SRB 72 hr; read-out: GI50. Format: cell-based. The protocol: as §3
Another assay concerns Panc-1. As to the kind of experiment: Cell viability (SRB), Panc-1. The note with it: Homo sapiens. It is filed as cell-based, human. The protocol:
as §3, §2
Cells were reverse-transfected with 50nM (SW48 parental, SW48 KRAS G12D and Panc-1) or 25nM (HeLa Flp-In T-REx parental cells) siRNA using Dharmafect (GE Dharmacon) as manufacturer’s recommendations. Where transfected cells were subsequently treated with compounds, the cells were allowed to settle overnight and then treated with compound at the indicated concentration the following day. Viability was assessed after 72 hrs, with the SRB colorimetric assay. Knockdown efficiencies were determined by Western blot or RT-qPCR. Oligos against the following target sequences were used. c-MET (Qiagen): […], […], […]. PLK1 (Qiagen): […]. PLK2 (SMARTpool; Dharmacon): ACACAGAAGGAGAACGAUA, CAUCAAUGAGGAUAGGAUA, CUGCCUAGUGUUACUGAUA, ACAAAGUCUACGCCGCAAA. PLK3 (SMARTpool; Dharmacon): GCGAGAAGAUCCUAAAUGA, GCAAGUGGGUUGACUACUC, GCACAUCCGUUGGCCAUCA, GACCUCAAGUUGGGAAAUU. PLK4 (Qiagen): […].

For a further assay, the system named is SW48 KRAS G12D cells. Nature of the assay: Cell viability (SRB), SW48 KRAS G12D. It is filed as cell-based. As to conditions: Homo sapiens; SW48 KRAS G12D, Crizotinib with DMSO, SRB 72 hr; read-out: GI50. The protocol:
as §3

The next assay has as its system DLD-1. As to the kind of experiment: Cell viability, DLD-1. Format: cell-based. The note with it: Homo sapiens, read-out: Crizotinib GI50.
The target in assay [4] is T1, PLK2-PBD(356-681), Polo-box domain of human Polo-like kinase 2 (human, UniProt Q9NYY3 356-681).
T1 construct: Polo-like kinase 2 (PLK2), human, Polo-box domain, residues 356-681; also called PLK2 PBD (aa356-681); PLK2 PDB; source: E. coli C41, purified (GST-Sepharose column, cleaved on column with PreScission protease, gel chromatography)
T1 sequence (looked up): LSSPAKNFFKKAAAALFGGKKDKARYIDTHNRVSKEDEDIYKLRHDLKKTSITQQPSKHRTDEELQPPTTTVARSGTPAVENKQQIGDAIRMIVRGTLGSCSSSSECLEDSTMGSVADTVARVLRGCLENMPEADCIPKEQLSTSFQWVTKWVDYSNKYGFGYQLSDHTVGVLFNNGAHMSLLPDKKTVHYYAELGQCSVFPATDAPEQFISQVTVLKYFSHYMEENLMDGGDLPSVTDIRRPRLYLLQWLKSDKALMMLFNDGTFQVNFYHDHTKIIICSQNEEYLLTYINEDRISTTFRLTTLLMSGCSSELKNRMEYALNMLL
As to the kind of experiment: fluorescence polarisation; competition format: TAMRA-labelled phosphopeptide 10 nM, PBD 84 nM (2.5 ng/ul), PBS pH 7.4 plus 0.03% tween; compound and PBD incubated together at 22 C for 1 hour before the peptide was added; same procedure for PLK2 PBD with its own peptide. As to conditions: both partners purified. (In general: Polarisation of emitted light reports the rotation of a fluorescent probe.)

What is called GI50 is the concentration that inhibits growth by half. Usually EC50 stands for the concentration giving half of the maximal effect. For `C[C@@H](Oc1cc(-c2cnn(C3CCNCC3)c2)cnc1N)c1c(Cl)ccc(F)c1Cl` [Crizotinib, reference compound], the GI50 in the assay on HT29 is 3850 nM; in assay [1], 6800 nM; with Panc 05.04, 91 nM; in the assay on Panc 02.03, 960 nM; in the assay with SW116, 4730 nM; in [2], 17600 nM. The GI50 in [3] came out at 560 ± 20 nM; with Panc-1 (PANC-1, 72 h, Panc-1, individual compound, 72 hr, Figure 7F/7G, read-out: Abs GI50), 2500 nM; in the assay with Panc-1 (PANC-1, Panc-1, read-out: Crizotinib GI50) it was 7240 nM; in the assay on SW48 KRAS G12D cells it was 630 ± 10 nM; with DLD-1, 1620 nM. Further, the EC50 in the assay on Panc-1 (Panc-1, c-MET inhibitor alone, SRB 72 h, Figure S5C, read-out: EC50, % survival) was determined as 3500 ± 1040 nM.

B1: TAMRA-MAGPMQTS(pThreonine)PKNGAKK, consensus binding phosphopeptide used with the PLK2 PBD (peptide)
peptide: {TAMRA}-MAGPMQTS[pT]PKNGAKK
notes: the second T of 'TST' is phosphothreonine; also called phosphopeptide substrate; source: bought: Designer Bioscience
Regarding B1, in assay [4], the binding result is “binds”.
